Measured values taken from ChEMBL document CHEMBL1127666, “Phosphonate analogs of carbocyclic nucleotides” (J Med Chem, 1994).

Tested on: HEp-2
Assay: Cytotoxicity to human epidermoid carcinoma cells (HEP-2)
Type: functional, cell-based

Row | SMILES | IC50 [µM]
1 | Nc1nc(O)c2ncn([C@@H]3C[C@H](CO)[C@@H](O)C3)c2n1 | 95
2 | Nc1nc(O)c2ncn(C3CC(O)C(OCP(=O)(O)O)C3)c2n1 (configuration not stated) | 2.4
